Data: PubChem BioAssay (NCI)
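Results reflect a 48-hour exposure of cells in 96-well plates to compound at five concentrations. TGI denotes the concentration required for complete inhibition of growth.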

Experiments:
Assay in all cases: NCI tumour cell line growth inhibition, 48 h
SNB-75 CNS = tested on: SNB-75 CNS
SN12C renal = tested on: SN12C renal
DU-145 prostate = tested on: DU-145 prostate
786-0 renal = tested on: 786-0 renal
PC-3 prostate = tested on: PC-3 prostate
MOLT-4 leukemia = tested on: MOLT-4 leukemia
UACC-62 melanoma = tested on: UACC-62 melanoma
HOP-92 NSCLC = tested on: HOP-92 NSCLC
SK-MEL-5 melanoma = tested on: SK-MEL-5 melanoma
NCI-H23 lung = tested on: NCI-H23 lung
KM12 colon = tested on: KM12 colon
NCI-H522 lung = tested on: NCI-H522 lung
SF-295 CNS = tested on: SF-295 CNS
HL-60(TB) leukemia = tested on: HL-60(TB) leukemia
T-47D breast = tested on: T-47D breast
NCI/ADR-RES ovarian = tested on: NCI/ADR-RES ovarian
OVCAR-5 ovarian = tested on: OVCAR-5 ovarian
EKVX NSCLC = tested on: EKVX NSCLC

Structure (SMILES)	TGI (SNB-75 CNS)	TGI (SN12C renal)	TGI (DU-145 prostate)	TGI (786-0 renal)	TGI (PC-3 prostate)	TGI (MOLT-4 leukemia)	TGI (UACC-62 melanoma)	TGI (HOP-92 NSCLC)	TGI (SK-MEL-5 melanoma)	TGI (NCI-H23 lung)	TGI (KM12 colon)	TGI (NCI-H522 lung)	TGI (SF-295 CNS)	TGI (HL-60(TB) leukemia)	TGI (T-47D breast)	TGI (NCI/ADR-RES ovarian)	TGI (OVCAR-5 ovarian)	TGI (EKVX NSCLC)
O=C(NCCCCCCCCNC(=O)Nc1cccc2ccccc12)Nc1cccc2ccccc12	> 100 µM	59.3 µM	> 100 µM	24.9 µM	> 100 µM	> 100 µM	> 100 µM	36 µM	> 100 µM	> 100 µM	> 100 µM	87 µM	> 100 µM	> 100 µM	> 100 µM	> 100 µM	> 100 µM	> 100 µM
NC1CCN(c2nc3ccccc3c3c2CCCC3)CC1	22.1 µM	21.5 µM	24.3 µM	13.3 µM	20.4 µM	9.36 µM	3.8 µM	17.2 µM	7.01 µM	28.2 µM	15.2 µM	19.3 µM	26.4 µM	8.84 µM	7.29 µM	28.8 µM	19 µM	21.4 µM
Cc1nc2ccc(Cl)cc2c2c1CCN2c1ccc(F)cc1	9.13 µM	> 100 µM	> 100 µM	> 100 µM	> 100 µM	> 100 µM	87.4 µM	–	21.6 µM	> 100 µM	> 100 µM	> 100 µM	> 100 µM	35.3 µM	> 100 µM	> 100 µM	> 100 µM	> 100 µM
Cc1c(-c2ccccc2)c(C#N)c2nnn(-c3ccc(Cl)cc3)c(=O)n12	> 100 µM	> 100 µM	> 100 µM	47.7 µM	50.9 µM	–	> 100 µM	> 100 µM	16 µM	> 100 µM	> 100 µM	26.7 µM	> 100 µM	> 100 µM	47.4 µM	> 100 µM	> 100 µM	> 100 µM
CCCC(=O)OCC1OC(n2cc(F)c(=O)[nH]c2=O)C(F)C1O (stereo not drawn)	> 100 µM	> 100 µM	> 67.1 µM	> 100 µM	> 100 µM	> 100 µM	> 100 µM	> 100 µM	> 100 µM	> 100 µM	> 100 µM	> 100 µM	> 100 µM	> 100 µM	> 100 µM	> 100 µM	> 100 µM	> 100 µM
FC(F)(F)c1ccc2c(-c3cc[nH]c3)ccnc2c1	33.8 µM	> 100 µM	> 100 µM	32.1 µM	> 100 µM	59.3 µM	> 100 µM	> 100 µM	43.3 µM	> 100 µM	> 100 µM	94.9 µM	84.1 µM	42.2 µM	> 100 µM	> 100 µM	87.4 µM	> 100 µM
Cc1ccc(S(=O)(=O)C2=Cc3ccccc3C2(O)c2ccccc2)cc1 (stereo not drawn)	> 100 µM	34.3 µM	> 100 µM	> 10 µM	92.6 µM	> 100 µM	–	–	31.2 µM	> 100 µM	37.6 µM	65 µM	76.9 µM	29.6 µM	> 100 µM	76.6 µM	> 100 µM	76 µM
N#CC(O)CCOCc1ccccc1 (stereo not drawn)	–	> 100 µM	> 100 µM	> 100 µM	> 100 µM	14.8 µM	> 100 µM	> 100 µM	> 100 µM	> 100 µM	> 100 µM	51.4 µM	> 100 µM	> 100 µM	> 100 µM	> 100 µM	> 100 µM	> 100 µM
O=C(O)CCC(NC(=O)c1ccc(Oc2nc3ccccc3nc2C(=O)O)cc1)C(=O)O (stereo not drawn)	> 100 µM	–	> 100 µM	> 100 µM	> 100 µM	> 100 µM	> 100 µM	> 100 µM	> 100 µM	> 100 µM	> 100 µM	> 100 µM	> 100 µM	> 100 µM	> 100 µM	> 100 µM	> 100 µM	> 100 µM
O=C(/C=C/c1ccc([N+](=O)[O-])cc1)N1CCN(CCOC(c2ccc(F)cc2)c2ccc(F)cc2)CC1	> 100 µM	> 100 µM	> 100 µM	> 100 µM	> 100 µM	19 µM	> 100 µM	83.8 µM	> 100 µM	> 100 µM	> 100 µM	> 100 µM	> 100 µM	> 100 µM	> 100 µM	> 100 µM	> 100 µM	> 100 µM
CC(C(=O)NCNC(=O)c1ccccc1)C(=O)Nc1ccccc1 (stereo not drawn)	> 100 µM	> 100 µM	> 100 µM	> 100 µM	> 100 µM	–	> 100 µM	> 100 µM	> 100 µM	> 100 µM	> 100 µM	> 100 µM	> 100 µM	> 100 µM	> 100 µM	> 100 µM	> 100 µM	> 100 µM
CCCCCCCCCCC/C=C(/C(=O)CCCO[Si](C)(C)C(C)(C)C)C(=O)OC	> 100 µM	> 100 µM	> 100 µM	> 100 µM	> 100 µM	> 100 µM	> 100 µM	> 100 µM	> 100 µM	> 100 µM	> 100 µM	> 100 µM	> 100 µM	> 100 µM	> 100 µM	> 100 µM	> 100 µM	> 100 µM
CCOC(=O)c1cc(=O)c2cccc3c2n1CCS3	> 100 µM	> 100 µM	> 100 µM	> 100 µM	> 100 µM	> 100 µM	> 100 µM	> 100 µM	> 100 µM	> 100 µM	> 100 µM	> 100 µM	> 100 µM	> 100 µM	> 100 µM	> 100 µM	> 100 µM	> 100 µM
C/C(=N\O)c1ccc(OCc2cc(C(F)(F)F)cc(C(F)(F)F)c2)cc1	> 100 µM	> 100 µM	> 100 µM	> 100 µM	> 100 µM	68.5 µM	–	> 100 µM	> 100 µM	> 100 µM	43.9 µM	> 100 µM	> 100 µM	25.5 µM	> 100 µM	> 100 µM	> 100 µM	> 100 µM
NC(=O)N/N=C\CC(O)(C(F)(F)Cl)C(F)(F)Cl	> 10 µM	> 10 µM	> 10 µM	> 10 µM	> 10 µM	> 10 µM	> 10 µM	> 10 µM	> 10 µM	> 10 µM	> 10 µM	> 10 µM	> 10 µM	> 10 µM	> 10 µM	> 10 µM	–	> 10 µM
CC(C)C1=Cc2ccc3c(c2C(=O)C1=O)CCCC3	4.76 µM	13.1 µM	32 µM	6.02 µM	26.8 µM	–	15.4 µM	2.27 µM	25.6 µM	20.3 µM	32.4 µM	18.1 µM	25.8 µM	1.95 µM	0.567 µM	52.1 µM	28.6 µM	19.2 µM
CSc1nc(-c2ccccc2)[nH]c(=O)n1	–	> 100 µM	> 100 µM	> 100 µM	> 100 µM	> 100 µM	> 100 µM	> 100 µM	> 100 µM	> 100 µM	> 100 µM	> 100 µM	> 100 µM	> 100 µM	> 100 µM	> 100 µM	> 100 µM	> 100 µM
O=C1c2cc3c(cc2CC12Cc1ccccc1C2)CCC3	93.8 µM	> 100 µM	> 100 µM	64.8 µM	> 100 µM	54.5 µM	–	64.3 µM	32.2 µM	> 100 µM	56.9 µM	93.3 µM	> 100 µM	81.6 µM	> 100 µM	76.8 µM	> 100 µM	> 100 µM
COc1ccc(C2(CC(C)C)CCNC2)cc1OC (stereo not drawn)	86.3 µM	> 100 µM	> 100 µM	> 100 µM	> 100 µM	–	> 100 µM	> 100 µM	> 100 µM	> 100 µM	> 100 µM	> 100 µM	> 100 µM	> 100 µM	> 100 µM	> 100 µM	> 100 µM	> 100 µM
O=C1c2ccccc2CC12Cc1cc3c(cc1C2)CCC3	> 100 µM	> 100 µM	> 100 µM	> 100 µM	> 100 µM	82.1 µM	–	> 100 µM	35.8 µM	> 100 µM	93.9 µM	> 100 µM	> 100 µM	> 100 µM	> 100 µM	> 100 µM	> 100 µM	> 100 µM
Cc1cc(C)n(-c2nc(-n3nc(C)cc3C)nc(-n3nc(C)cc3C)n2)n1	–	> 100 µM	> 100 µM	> 100 µM	> 100 µM	> 100 µM	> 100 µM	> 100 µM	> 100 µM	> 100 µM	> 100 µM	> 100 µM	> 100 µM	> 100 µM	> 100 µM	> 100 µM	> 100 µM	> 100 µM
